# According to patent publication US10718028B2, “Fluorescent probes for abasic site detection” (CASE WESTERN RESERVE UIVERSITY, priority 2015, dated 2020):
# Entries after “also recorded” stand apart in the source; their conditions may differ.
# Key:
# [1] = Fluorescence and absorbance properties of Cy7MX in various solvents (Example 1); format: physicochemical
# Description: NMR spectra were recorded on a Varian Mercury 300 MHz, a Varian Inova 400, and a Varian Inova 600 MHz spectrometer at room temperature, except where otherwise noted. Chemical shifts for 1H NMR were reported as 6, parts per million, and referenced to CHCl3 at 7.26 ppm or TMS at 0 ppm. Chemical shifts for ^13C NMR were reported as 6 and referenced to the center line of the CDCl3 triplet at 77.0 ppm or CH2Cl2 pentet at 54.0 ppm. Low resolution mass spectra were recorded on a ThermoScientific LCQ Advantage or a Finnigan LCQ Deca mass spectrometer. Fluorescence data were collected on a Varian Cary Eclipse fluorescence spectrophotometer in a quartz cuvette with a 1 cm pathlength or on a Tecan Infinite M200 scanner. Absorbance data were collected on a Varian Cary 50 Bio UV-Visible Spectrophotometer in a quartz cuvette with a 1 cm path length.
# Fluorescent quantum yields were determined by a comparative method to an indocyanine green (ICG) standard (Φ=0.132 in EtOH) with refractive index correction according to Equation 1:
# [formula] • where Φ is the quantum yield; F is the integrated fluorescence intensity (area); A is the absorbance; n is the refractive index of the solvent (ethanol, 1.3611; acetonitrile, 1.3442; water, 1.333; and chloroform, 1.4459); and R is the reference sample, ICG in EtOH. Sample and reference fluorophores were excited at 700 nm and emission spectra integrated from 705 to 1000 nm and absorption measurements were collected at 700 nm. Data were collected in a quartz cuvette with a 1 cm pathlength. Absorbance maxima for each sample were kept at or below 0.2 absorbance units to avoid inner filter effects. Solvents used were spectroscopic grade ethanol and HPLC grade acetonitrile, HPLC grade chloroform, and HPLC grade water. For the water solution, Cy7MX was first dissolved first in MeCN and diluted at least 200 fold. Synthesis of Compounds for AP Site Detection
# Further characterization was conducted for Cy7MX (Table 2), Cy7MX, because it was chosen for extensive investigation in biological studies. The absorption and emission spectra were collected in polar protic (water and ethanol), polar aprotic (acetonitrile), and relatively nonpolar (chloroform) solvents. […] The extinction coefficient and the fluorescence quantum yields for Cy7MX compared favorably to other heptamethine cyanine dyes.
# [2] = target: T1, UDG (Escherichia coli, UniProt P12295); test: SSB activity assay UDG inhibition; format: biochemical; details: UDG 10 min pretreatment vs simultaneous UDG and Cy7MX
# T1 construct: purchased New England BioLabs
# T1 sequence (P12295 whole entry): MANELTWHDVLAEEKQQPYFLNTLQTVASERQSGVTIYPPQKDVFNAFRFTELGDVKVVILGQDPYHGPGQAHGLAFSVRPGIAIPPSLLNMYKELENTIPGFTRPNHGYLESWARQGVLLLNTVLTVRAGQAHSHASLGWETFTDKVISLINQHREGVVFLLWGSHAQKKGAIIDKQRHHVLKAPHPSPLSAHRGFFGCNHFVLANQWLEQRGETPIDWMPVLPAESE
# Description: FIG. 8 illustrates the evaluation of UDG inhibition by Cy7MX. Time course represents incubation time of U:A DNA before APE addition with UDG alone, 10 minutes UDG pretreatment then Cy7MX, and UDG and Cy7MX without pretreatment.
# Method UDG (10 min)+Cy7MX: All samples were prepared in triplicate.
# Method UDG+Cy7MX: All samples were prepared in triplicate. […] Samples were incubated at 37° C. in the dark for 2 min, 10 min, 30 min, 60 min, or 180 min.
# Method UDG: As in method UDG+Cy7MX except substitute DMSO (2 μL) for Cy7MX.
# Likewise, the potential of Cy7MX to inhibit UDG, either through direct interaction with the enzyme or by binding to DNA and blocking the uracil substrate, was tested. To accomplish this, U:A DNA was incubated with UDG for a fixed time prior to addition of Cy7MX (FIG. 8, UDG (10 min)+Cy7MX). In this case, Cy7MX could not interfere with the activity of UDG.
# [3] = Stability of Cy7MX and Cy7MX-treated samples; format: physicochemical
# [4] = target: T2, APE (Homo sapiens, UniProt P27695); test: SSB activity assay APE inhibition; format: biochemical
# T2 construct: purchased New England BioLabs
# T2 sequence (P27695 whole entry): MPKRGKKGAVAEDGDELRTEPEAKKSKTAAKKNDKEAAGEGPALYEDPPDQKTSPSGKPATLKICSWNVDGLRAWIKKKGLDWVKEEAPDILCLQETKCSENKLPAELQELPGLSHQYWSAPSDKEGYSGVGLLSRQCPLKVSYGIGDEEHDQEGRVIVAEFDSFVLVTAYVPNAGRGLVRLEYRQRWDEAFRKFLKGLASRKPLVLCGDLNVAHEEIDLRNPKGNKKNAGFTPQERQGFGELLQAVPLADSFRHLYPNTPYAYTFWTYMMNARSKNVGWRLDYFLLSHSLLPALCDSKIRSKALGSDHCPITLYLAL
# Description: FIG. 7 illustrates the evaluation of APE inhibition by Cy7MX. […] APE is inhibited about 50% after 3 h incubation. The baseline reduction in cutting is due to competition of APE and Cy7MX for the AP-DNA substrate.
# Meanwhile, five samples of each DNA reaction were prepared.
# We determined if Cy7MX could inhibit the activity of the enzymes and thereby complicate the results on the assay. While the order of reagent addition in the assay may be structured to avoid enzyme inhibition, Cy7MX is envisioned as an imaging agent in living cells where the enzymes are constantly present. To test the possible inhibition of Cy7MX towards APE, the probe and enzyme were incubated together for a variable period of time then incubated for a fixed period of time with AP DNA (U:A DNA pretreated with UDG). If the two species were only competing for substrate, then the extent of cutting observed would be independent of the APE+Cy7MX incubation time. Conversely, if Cy7MX inhibits the action of APE, then the extent of cutting would vary as a function of APE+Cy7MX incubation time. In either case, some baseline reduction in cutting was expected as Cy7MX and APE competed for substrate. […] However, this effect was only observed after 60 minutes. Thus, the one hour incubation of APE in the cutting assay is not expected to be negatively impacted by the presence of Cy7MX.
structure (smiles),measurement,setting,value
"CCCN1/C(=C/C=C2\CCCC(/C=C/C3=[N+](CCC)c4ccccc4C3(C)C)=C2Oc2ccc(CC(=O)NCCCON)cc2)C(C)(C)c2ccccc21 [Cy7MX, 2-((E)-2-((E)-2-(4-(2-((3-(aminooxy)propyl)amino)-2-oxoethyl)phenoxy)-3-((E)-2-(3,3-dimethyl-1-propylindolin-2-ylidene)ethylidene)cyclohex-1-en-1-yl)vinyl)-3,3-dimethyl-1-propyl-3H-indol-1-ium 2,2,2-trifluoroacetate]",Φ,[1]; CHCl3,32.6%
same,λabs,[1]; CHCl3,770 nm
same,λem,[1]; CHCl3,791 nm
same,Φ,[1]; EtOH,36.3%
same,ε,[1]; EtOH,"127,000 M^−1cm^−1"
same,λabs,[1]; EtOH,770 nm
same,λem,[1]; EtOH,796 nm
same,Φ,[1]; H2O,6.3%
same,ε,[1]; H2O,"140,000 M^−1cm^−1"
same,λabs,[1]; H2O,767 nm
same,λem,[1]; H2O,790 nm
same,Φ,[1]; MeCN,45.9%
same,ε,[1]; MeCN,"154,000 M^−1cm^−1"
same,λabs,[1]; MeCN,767 nm
same,λem,[1]; MeCN,789 nm
same,solvatochromism,"[1]; water, ethanol, acetonitrile, chloroform",No solvatochromism was observed
same,UDG inhibition,[2],does not inhibit UDG activity
same,stability of Cy7MX with MX,"[3]; in the presence of light, MX solutions",decompose Cy7MX rapidly
same,stability of Cy7MX assay samples,[3]; stored in the dark,stable for at least two days
same,APE inhibition,[4]; 60 min APE incubation,no detectable inhibition
same,APE inhibition,"[4]; APE and Cy7MX incubated together before addition of AP-DNA, variable time, 2,2,2-trifluoroacetate",did have inhibitory effects on APE; also recorded: mild inhibition
same,APE inhibition,[4]; after 3 h incubation of APE with Cy7MX,about 50%
same,APE inhibition,[4]; tetrahydrofuran (THF) base in place of the AP site,moderate inhibition of APE
